Measurements: patent publication US20160201067A1, “Composition for Enhancing Transgene Expression in Eukaryotic Cells and Method for Enhancing Production of a Target Protein Encoded by a Transgene” (SILEZIA GROUP PTE. LTD, priority 2013, published 2016)

How the values were obtained:
[1] = tested on: mouse peritoneal macrophages transduced with Ad-GFP; assay: Enhancement of GFP expression in peritoneal macrophages transduced with Ad-GFP, PRR agonists (Example 4); format: cell-based; settings: Ad-GFP 2 × 10^7 PFU/ml, 4 days
Experimental: Mouse peritoneal macrophages (BALB/c female mice, Stolbovaya breeding nursery) were washed with physiological saline solution, pelleted by centrifugation at 1200 rpm for 10 min, suspended in the complete cell culture medium (CCM, consisting of RPMI-1640 medium supplemented with 10% fetal calf serum, 2 mM L-glutamine, 50 μM of (3-mercaptoethanol, and 10 μg/ml of gentamycin) at a concentration of one million cells per 1 ml, and incubated over night in 90 mm Petri dishes at 37° C. and 5% CO2. On the next day, nonadherent cells were removed by washing with warm phosphate buffered saline (PBS, pH 7.4), and adherent cells were covered with Versene solution, kept at 4° C. for 60 min in a refrigerator, and then detached from the culture dish by washing with Versene solution using 5 ml pipette. […] Cell cultures were incubated for 4 days at 37° C. and 5% CO2.
Confocal microscopy images (FIG. 3A) show macrophages transduced with Ad-GFP and additionally activated by TLR4 agonist (10 μg/ml of APG, right image), as compared to control macrophages transduced with Ad-GFP without addition of APG (left image). […] The quantitative assay of GFP production was carried out using flow cytometry which determined both the absolute number of cells containing GFP and the GFP content in each cell by measuring fluorescence intensity of a single cell. The product of the number of fluorescent cells and the fluorescence intensity of each cell is proportional to the number of synthesized GFP molecules.
As is described earlier, peritoneal macrophages were transduced with Ad-GFP (2×10^7 PFU/ml) in the absence or presence of one of the above mentioned PRR agonists. Cell cultures were incubated at 37° C. and 5% CO2 for four days. After the end of incubation, cells were detached by washing with a cold Versene solution, and the percentage and absolute number of cells having green fluorescence and the intensity of cell fluorescence were determined using a FACSAria II flow cytometer. The absolute count of cells was normalized by calibration beads containing a known concentration of microspheres (CountBright Invitrogen), and discrimination between live and dead cells was carried out using a DNA-specific dye DAPI. Typical histograms of GFP fluorescence signal after the transduction of macrophages by Ad-GFP without additional activation of cells (FIG. 3D) or with additional activation of cells with CL097, the agonist of TLR7 and TLR8 (FIG. 3E), are shown.
The quantitative assessment of the enhancement of target GFP expression was performed by the formula:
K=MFI×N/MFIcontr×Ncontr, (1)
K is the enhancement (fold increase) of GFP expression;
MFI is the mean intensity of fluorescence of cells transduced with Ad-GFP with additional activation by an agonist;
MFIcontr is the mean intensity of fluorescence of cells transduced with Ad-GFP (control) without additional activation;
N is the number of fluorescent cells after the transduction with Ad-GFP with additional activation by an agonist; and
Ncontr is the number of fluorescent cells (control) after the transduction with Ad-GFP without additional activation.

[2] = tested on: mouse peritoneal macrophages; assay: Enhancement of transgenic SEAP expression in peritoneal macrophages (Example 6); settings: TNF-α 10 ng/ml or APG 10 μg/ml vs Ad-SEAP alone
Experimental: A test liquid was clarified by centrifugation at 14,000 g for 2 min, warmed-up at 65° C. for 5 min to inhibit endogenous phosphatases, then 20 μl aliquots were transferred into each well of a 96-well plate to 130 μl of reaction buffer (0.5 M NaHCO3, 0.5 MM MgCl2, pH 9.8), and incubated at 37° C. for 10 min. Then 50 μl of 60 μM p-nitrophenyl phosphate in reaction buffer were added, and the optical density was measured at 405 nm at fixed intervals. The SEAP activity was expressed in mU/ml, considering 1 mU/ml corresponds to an increase in optical density of 0.04 U per 1 min.
Mouse peritoneal macrophages were obtained and incubated as described in the example 4. Cells were incubated in triplet culture wells with addition of Ad-GFP at 2×10^7 PFU per well in combination with TNF-α (10 ng/ml) or APG (Russian Patent no. 2195308, 10 μg/ml). In the negative control cultures, macrophages were transduced with Ad-SEAP (2×10^7 PFU) without any cell activating compound. After 4 days, the activity of SEAP was measured in the culture medium, as described in the example 2.

lipoteichoic acid [LTA]
Fold increase in the expression of GFP, calculated according to the formula (1), Mean ([1]; agonist 10 μg/ml): 2.10

Lauroyl-g-D-Glu-D-mDAP and Lauroyl-g-D-Glu-L-mDAP [C12-iE-DAP]
Fold increase in the expression of GFP, calculated according to the formula (1), Mean ([1]; agonist 20 μg/ml): 3.1

TNF-α
Enhancement coefficient (SEAP expression in peritoneal macrophages) [2]: 1.8

Flagellin
Fold increase in the expression of GFP, calculated according to the formula (1), Mean ([1]; agonist 1 μg/ml): 2.13

CCOCc1nc2c([nH]1)c(N)nc1ccccc12 [CL097]
Fold increase in the expression of GFP, calculated according to the formula (1), Mean ([1]; agonist 2.5 μg/ml): 14.2

ODN 1826
Fold increase in the expression of GFP, calculated according to the formula (1), Mean ([1]; agonist 0.6 μg/ml): 1.43

CC(C)Cn1cnc2c(N)nc3ccccc3c21 [Imiquimod, imiquimod]
Fold increase in the expression of GFP, calculated according to the formula (1), Mean ([1]; agonist 10 μg/ml): 2.03
